Test results: PubChem BioAssay (NCI)
Values joined by “and” are separate entries in the source; they are usually repeats but may differ in a detail not shown here. Identical values can stand only once.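 Protocol summary: plate cells (96-well), add compound at 5 concentrations, incubate 48 h, interpolate endpoints linearly. Here, GI50 denotes the concentration required for 50% inhibition of growth. TGI: concentration producing complete growth inhibition.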

How the values were obtained:
Experiment in all cases: growth of human tumour cells (NCI), 48 h
BT-549 breast = test system: BT-549 breast
COLO 205 colon = test system: COLO 205 colon
HT29 colon = test system: HT29 colon
LOX IMVI melanoma = test system: LOX IMVI melanoma
NCI-H23 lung = test system: NCI-H23 lung
SNB-19 CNS = test system: SNB-19 CNS
SNB-75 CNS = test system: SNB-75 CNS
SR leukemia = test system: SR leukemia
UO-31 renal = test system: UO-31 renal
KM12 colon = test system: KM12 colon

SMILES | TGI (BT-549 breast) | TGI (COLO 205 colon) | TGI (HT29 colon) | TGI (LOX IMVI melanoma) | TGI (NCI-H23 lung) | TGI (SNB-19 CNS) | TGI (SNB-75 CNS) | TGI (SR leukemia) | TGI (UO-31 renal) | GI50 (BT-549 breast) | GI50 (COLO 205 colon) | GI50 (HT29 colon) | GI50 (KM12 colon) | TGI (KM12 colon) | GI50 (LOX IMVI melanoma) | GI50 (NCI-H23 lung) | GI50 (SNB-19 CNS) | GI50 (SNB-75 CNS) | GI50 (SR leukemia) | GI50 (UO-31 renal)
COc1ccc(-c2cc(=O)c3c(OC)c(OC)c(OC)cc3o2)cc1 | > 100 µM | 51.7 µM | 99.5 µM | 81.5 µM | > 100 µM | > 100 µM | > 100 µM | > 100 µM | 87.7 µM |  |  |  |  |  |  |  |  |  |  | 
COc1cc2c(c(O)c1Br)C(=O)c1c(O)cc(C[C@H](C)O)cc1[C@H]2[C@H]1c2cc(C[C@H](C)O)cc(O)c2C(=O)c2c1cc(OC)c(Br)c2O | 63.5 µM and 45.2 µM | 9.21 µM and 24.9 µM | 67.5 µM and > 100 µM | 16.2 µM and 34.4 µM | 42.1 µM and 39.3 µM | 67.5 µM and 80.1 µM | 56.5 µM and 67 µM | 67.5 µM and > 100 µM | 15.9 µM and 29.8 µM | 10.9 µM and 7.55 µM | 2.32 µM and 6.74 µM | 2.39 µM and 4.83 µM | 5.96 µM and 26.4 µM | 37.9 µM and 82.4 µM | 6.57 µM and 11.4 µM | 5.85 µM and 4.83 µM | 5.07 µM and 10.4 µM | 5.09 µM and 16 µM | 3.04 µM and 3.98 µM | 7.52 µM and 15.4 µM
CCN(CC)CCOc1ccc(/C(=C(\Cl)c2ccccc2)c2ccccc2)cc1 | 11.9 µM and 12.1 µM | 1.72 µM and 2.83 µM | 2.21 µM and 1.38 µM | 1.89 µM and 3.22 µM | 11.8 µM and 10.3 µM | 11.9 µM and 5.41 µM | 8.5 µM and 4.95 µM | 9.16 µM and 8.36 µM | 2.62 µM and 5.9 µM | 5.48 µM and 2.91 µM | 0.859 µM and 1.36 µM | 0.944 µM and 0.353 µM | 2.1 µM and 1.87 µM | 7.2 µM and 4.08 µM | 0.916 µM and 1.67 µM | 5.25 µM and 2.62 µM | 5.41 µM and 2.25 µM | 2.19 µM and 1.39 µM | 1.9 µM and 2.3 µM | 0.856 µM and 1.49 µM
CC[CH2][Sn]([CH2]CC)([O]C(=O)c1cccnc1SC)[O][Sn]([CH2]CC)([CH2]CC)[O]C(=O)c1cccnc1SC | 2.71 µM | 1.08 µM | 3.33 µM | 0.567 µM | 0.801 µM | 2.22 µM | 1.97 µM | 12.1 µM | 2.14 µM | 1.41 µM | 0.396 µM | 1.1 µM | 1.5 µM | 4.43 µM | 0.23 µM | 0.218 µM | 0.83 µM | 0.584 µM | 0.214 µM | 0.844 µM
CC/C(=C(/c1ccc(O)cc1)c1ccc(OCCNC)cc1)c1ccccc1 | 13.9 µM | 3.59 µM | 3.83 µM | 3.17 µM | 7.25 µM | 11.9 µM | 5.24 µM | 5.46 µM | 4.8 µM | 3.37 µM | 1.97 µM | 2.02 µM | 1.87 µM | 3.83 µM | 1.75 µM | 2.6 µM | 3.12 µM | 1.43 µM | 2.09 µM | 1.86 µM
FC(F)(F)c1cccc(Nc2nccc(-c3cnn4nc(-c5ccccc5)ccc34)n2)c1 | > 25 µM | > 25 µM | > 18.4 µM | > 17.7 µM | > 25 µM | > 25 µM | 9.6 µM | > 25 µM | > 23.1 µM | 18.8 µM | 11.8 µM | 6.88 µM | 6.46 µM | > 19.6 µM | 6.18 µM | 9.13 µM | > 17.1 µM | 3.91 µM | 2.15 µM | 10.8 µM
O=C1Nc2c(C(F)(F)F)cccc2[C@]1(c1ccc(O)cc1)c1ccc(OC(F)(F)F)cc1 | 8.43 µM | 25.4 µM | 28.9 µM |  | 26.4 µM | 27.2 µM | 19.5 µM | 39.8 µM | 20 µM | 2.18 µM | 3.26 µM | 10.3 µM | 11.3 µM | 24.2 µM |  | 11 µM | 14.1 µM | 5.78 µM | 6.6 µM | 6.45 µM
COc1cc(C2NC(=O)c3ccccc3N2)ccc1OCCCCCOc1c(OC)cc(C2=NOC(c3cc(OC)c(OC)c(OC)c3)C2)cc1OC (stereo not given) | > 100 µM | > 100 µM | > 100 µM | > 100 µM | > 80 µM | > 88.8 µM | > 100 µM | > 100 µM | > 100 µM | 0.507 µM | > 59 µM | > 100 µM | 7.59 µM | 98.8 µM | 16.7 µM | 0.484 µM | 16.6 µM | 19.6 µM | 0.947 µM | 15.1 µM
CC[C@@H]1C(=O)N(C)c2cnc(Nc3ccc(C(=O)NC4CCN(C)CC4)cc3OC)nc2N1C1CCCC1 | > 10 µM and 12.2 µM | 0.111 µM | > 4.71 µM and 10.3 µM | 1.33 µM and 1.53 µM | > 5.03 µM and 6.4 µM | > 10 µM and 20.3 µM | 0.233 µM and 0.17 µM |  | > 3.97 µM and 15.1 µM | 0.0948 µM and 0.0414 µM | 0.00326 µM and < 0.01 µM | 0.0036 µM and < 0.01 µM | 0.00346 µM and < 0.01 µM | > 10 µM and 5.65 µM | 0.00414 µM and < 0.01 µM | 0.00443 µM and < 0.01 µM | 0.0058 µM and < 0.01 µM | 0.00411 µM and < 0.0112 µM | 0.00182 µM and < 0.01 µM | 0.323 µM and 0.631 µM
COc1ccc(-c2cc(=O)c3ccc(O)cc3o2)cc1OC | > 100 µM | > 100 µM | > 100 µM | > 100 µM | > 100 µM | > 100 µM | > 100 µM | > 100 µM |  |  |  |  |  | > 100 µM |  |  |  |  |  | 
O=c1[nH]ncc(Br)c1Br | 12.2 µM | 3.32 µM | 3.5 µM | 3.06 µM | 3.54 µM | 18.9 µM | 16 µM | 3.9 µM | 4.51 µM | 3.63 µM | 1.91 µM | 1.9 µM | 2.71 µM | 13.7 µM | 1.65 µM | 1.92 µM | 5.32 µM | 3.35 µM | 0.911 µM | 1.87 µM
Oc1c(CN2CCC(N3CCCCC3)CC2)cc(Cc2cc(CN3CCC(N4CCCCC4)CC3)c(O)c3ncccc23)c2cccnc12 | 5.13 µM | 1.94 µM | 5.39 µM | 2.89 µM | 14 µM | 22.5 µM | 13.4 µM | 3.74 µM | 4.22 µM | 1.48 µM | 0.372 µM | 1.07 µM | 0.677 µM | 14.6 µM | 0.62 µM | 2.28 µM | 2.65 µM | 1.65 µM | 0.652 µM | 1 µM
CN1CCN(C)C12C=c1ccccc1=CC21CC1 | > 100 µM | 25.6 µM | 32.7 µM | 90 µM | > 100 µM | > 100 µM | > 93.1 µM | 63.2 µM | > 100 µM |  |  |  |  | 68.4 µM |  |  |  |  |  | 
